# Tested on: SK-OV-3 cell line
# Assay: 5-aza-2′-deoxycytidine treatment of SK-OV-3 cell line, gene expression changes by qRT-PCR
# Assay type: cell-based, Human
# [1] = primary cell line SK-OV-3 treated with 5, 10 and 20 μM for 3 days, qRT-PCR normalized to GAPDH
structure (smiles),measurement,setting,value
Nc1ncn([C@H]2C[C@H](O)[C@@H](CO)O2)c(=O)n1 [5-aza-2′-deoxycytidine],"changes in expressions of the three genes (ADAM12, NTN4 and PTGS2)","cell line SK-OV-3, treatment for 3 days, FIGS. 12 to 14",increased
same,increase in ADAM12 gene expression,"cell line SK-OV-3 treated with 5, 10 and 20 μM for 3 days, qRT-PCR normalized to GAPDH",about 2 fold
same,increase in NTN4 gene expression,[1],about 2 fold
same,increase in PTGS2 gene expression,[1],about 2 fold

# — patent US20160265061A1, “COMPOSITION FOR DIAGNOSING OVARIAN CANCER METASTASIS BY USING CPG METHYLATION IN GENE, AND USE THEREOF” (EWHA UNIVERSITY - INDUSTRY COLLABORATION FOUNDATION, priority 2013, published 2016)
